# From patent US20230114728A1 (Venatorx Pharmaceuticals, Inc., priority 2019, published 2023)
# Assays:
# N. gonorrhoeae WHO K = assay: Liquid broth MIC in Fastidious broth; format: cell-based; details: Neisseria gonorrhoeae, read-out: Minimum Inhibitory Concentration, N. gonorrhoeae WHO K
# Procedure, shortened: (§1)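 Colonies were swabbed from chocolate agar after 24 h growth and standardised by optical density at 600 nm. Compounds were serially diluted twofold in Fastidious broth, and bacteria added to give 5×10^5 CFU/mL. After about 24 h at 36 °C in 5% CO2, the lowest concentration allowing under 10% growth was taken as MIC.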
# N. gonorrhoeae H041 = assay: Liquid broth MIC in Fastidious broth; format: cell-based; details: Neisseria gonorrhoeae, H041, read-out: Minimum Inhibitory Concentration, N. gonorrhoeae H041
# Procedure, shortened: as §1
# [1] = tested on: N. gonorrhoeae ATCC 49226; assay: Liquid broth MIC in Fastidious broth; format: cell-based; details: Neisseria gonorrhoeae, ATCC49226; N. gonorrhoeae strain ATCC 49226; Fastidious broth; read-out: Minimum Inhibitory Concentration, N. gonorrhoeae ATCC 49226
# Procedure, shortened: as §1
# N. gonorrhoeae FA1090 = assay: Liquid broth MIC in Fastidious broth; format: cell-based; details: Neisseria gonorrhoeae; N. gonorrhoeae strain FA1090; Fastidious broth; read-out: Minimum Inhibitory Concentration, N. gonorrhoeae FA1090
# Procedure, shortened: as §1
# N. gonorrhoeae WHO G = assay: Liquid broth MIC in Fastidious broth; format: cell-based; details: Neisseria gonorrhoeae; N. gonorrhoeae strain WHO G; Fastidious broth; read-out: Minimum Inhibitory Concentration, N. gonorrhoeae WHO G
# Procedure, shortened: as §1
# N. gonorrhoeae WHO L = assay: Liquid broth MIC in Fastidious broth; format: cell-based; details: Neisseria gonorrhoeae; N. gonorrhoeae strain WHO L; Fastidious broth; read-out: Minimum Inhibitory Concentration, N. gonorrhoeae WHO L
# Procedure, shortened: as §1
# E. coli K12 PBP3 = biological target: T1, E. coli K12 PBP3 (Escherichia coli, UniProt P0AD68); assay: biochemical; format: binding
# T1 construct: made in house
# Procedure, shortened: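 Fluorescence polarization (ex 490/em 520 nm) competition of inhibitors against Bocillin-FL at 0.1 μM, read up to 60 min. Final PBP levels: E. coli PBP3 1.5 μM; A. baumannii PBP2 2.5 μM, PBP3 0.2 μM in Tris pH 8.0/NaCl/glycerol/Tween 20; N. gonorrhoeae PBP2 […] in Hepes pH 8.0/NaCl/glycerol. EC50 = concentration halving PBP-bound Bocillin-FL.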
# T1 sequence (P0AD68 1-577): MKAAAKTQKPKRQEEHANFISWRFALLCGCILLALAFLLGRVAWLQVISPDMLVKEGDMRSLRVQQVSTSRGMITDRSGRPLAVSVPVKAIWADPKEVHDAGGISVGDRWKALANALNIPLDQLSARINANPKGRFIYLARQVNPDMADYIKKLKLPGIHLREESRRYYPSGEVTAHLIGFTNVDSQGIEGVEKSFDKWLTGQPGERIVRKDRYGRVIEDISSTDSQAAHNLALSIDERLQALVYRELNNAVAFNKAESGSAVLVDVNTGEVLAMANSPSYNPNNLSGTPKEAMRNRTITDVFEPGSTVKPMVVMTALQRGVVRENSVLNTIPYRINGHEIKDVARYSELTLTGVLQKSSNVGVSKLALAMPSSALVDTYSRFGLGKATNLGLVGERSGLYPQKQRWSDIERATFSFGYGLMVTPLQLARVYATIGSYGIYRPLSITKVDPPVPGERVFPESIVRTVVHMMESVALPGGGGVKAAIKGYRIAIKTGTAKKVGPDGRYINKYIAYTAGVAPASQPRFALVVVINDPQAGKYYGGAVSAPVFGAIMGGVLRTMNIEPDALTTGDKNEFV
SMILES,MIC (N. gonorrhoeae WHO K) [µg/mL],MIC (N. gonorrhoeae H041) [µg/mL],MIC [1] [µg/mL],MIC (N. gonorrhoeae FA1090) [µg/mL],MIC (N. gonorrhoeae WHO G) [µg/mL],MIC (N. gonorrhoeae WHO L) [µg/mL],EC50 (E. coli K12 PBP3) [µM]
"O=C(O)c1ccc(C(NC(=O)c2c(F)cc(O)c(O)c2Cl)C(=O)N[C@H]2Cc3ccc(F)c(C(=O)O)c3OB2O)cc1F (stereo partly drawn) [Example 71, (3R)-3-(2-(4-carboxy-3-fluorophenyl)-2-(2-chloro-6-fluoro-3,4-dihydroxybenzamido)acetamido)-7-fluoro-2-hydroxy-3,4-dihydro-2H-benzo[e][1,2]oxaborinine-8-carboxylic acid]",> 64,> 64,> 64,> 64,> 64,> 64,> 500
"CCN1CCN(C(=O)NC(C(=O)N[C@H]2Cc3cccc(C(=O)O)c3OB2O)c2cccc(N)c2)C(=O)C1=O (stereo partly drawn) [Example 72, (3R)-3-(2-(3-aminophenyl)-2-(4-ethyl-2,3-dioxopiperazine-1-carboxamido)acetamido)-2-hydroxy-3,4-dihydro-2H-benzo[e][1,2]oxaborinine-8-carboxylic acid]",> 64,> 64,4 to 8,0.25 to 0.5,1 to 2,> 64,< 30
"CCN1CCN(C(=O)NC(C(=O)N[C@H]2Cc3cccc(C(=O)O)c3OB2O)c2cccc(NC(=O)c3ccc(O)c(O)c3Cl)c2)C(=O)C1=O (stereo partly drawn) [Example 73, (3R)-3-(2-(3-(2-chloro-3,4-dihydroxybenzamido)phenyl)-2-(4-ethyl-2,3-dioxopiperazine-1-carboxamido)acetamido)-2-hydroxy-3,4-dihydro-2H-benzo[e][1,2]oxaborinine-8-carboxylic acid]",> 64,> 64,> 64,1 to 2,16 to 32,> 64,< 30
"CCN1CCN(C(=O)NC(C(=O)N[C@H]2Cc3cccc(C(=O)O)c3OB2O)c2ccc(O)c(NC(=O)c3ccc(O)c(O)c3Cl)c2)C(=O)C1=O (stereo partly drawn) [Example 74, (3R)-3-(2-(3-(2-chloro-3,4-dihydroxybenzamido)-4-hydroxyphenyl)-2-(4-ethyl-2,3-dioxopiperazine-1-carboxamido)acetamido)-2-hydroxy-3,4-dihydro-2H-benzo[e][1,2]oxaborinine-8-carboxylic acid]",> 64,> 64,> 64,1 to 2,16 to 32,> 64,< 30
"CCN1CCN(C(=O)NC(C(=O)N[C@H]2Cc3cccc(C(=O)O)c3OB2O)c2cccc([N+](=O)[O-])c2)C(=O)C1=O (stereo partly drawn) [Example 75, (3R)-3-(2-(4-ethyl-2,3-dioxopiperazine-1-carboxamido)-2-(3-nitrophenyl)acetamido)-2-hydroxy-3,4-dihydro-2H-benzo[e][1,2]oxaborinine-8-carboxylic acid]",> 64,> 64,4 to 8,0.25 to 0.5,4 to 8,> 64,30 to 500
"CCN1CCN(C(=O)NC(C(=O)N[C@H]2Cc3cccc(C(=O)O)c3OB2O)c2cccc(NS(C)(=O)=O)c2)C(=O)C1=O (stereo partly drawn) [Example 76, (3R)-3-(2-(4-ethyl-2,3-dioxopiperazine-1-carboxamido)-2-(3-(methylsulfonamido)phenyl)acetamido)-2-hydroxy-3,4-dihydro-2H-benzo[e][1,2]oxaborinine-8-carboxylic acid]",> 64,> 64,> 64,1 to 2,16 to 32,> 64,< 30
"CCN1CCN(C(=O)NC(C(=O)N[C@H]2Cc3cccc(C(=O)O)c3OB2O)c2cc(O)ccc2O)C(=O)C1=O (stereo partly drawn) [Example 77, (3R)-3-(2-(2,5-dihydroxyphenyl)-2-(4-ethyl-2,3-dioxopiperazine-1-carboxamido)acetamido)-2-hydroxy-3,4-dihydro-2H-benzo[e][1,2]oxaborinine-8-carboxylic acid]",> 64,> 64,16 to 32,4 to 8,16 to 32,> 64,30 to 500
"N=C(N)NCCN1CCN(C(=O)NC(C(=O)N[C@H]2Cc3ccc(F)c(C(=O)O)c3OB2O)c2ccc(C(=O)O)c(F)c2)C(=O)C1=O (stereo partly drawn) [Example 78, (3R)-3-(2-(4-carboxy-3-fluorophenyl)-2-(4-(2-guanidinoethyl)-2,3-dioxopiperazine-1-carboxamido)acetamido)-7-fluoro-2-hydroxy-3,4-dihydro-2H-benzo[e][1,2]oxaborinine-8-carboxylic acid]",> 64,> 64,16 to 32,4 to 8,4 to 8,> 64,30 to 500
"CC(C)(C)[C@@H](NC(=O)N1CCN(CCNC(=O)c2c(F)cc(O)c(O)c2Cl)C(=O)C1=O)C(=O)N[C@H]1Cc2ccc(F)c(C(=O)O)c2OB1O [Example 80, (R)-3-((R)-2-(4-(2-(2-chloro-6-fluoro-3,4-dihydroxybenzamido)ethyl)-2,3-dioxopiperazine-1-carboxamido)-3,3-dimethylbutanamido)-7-fluoro-2-hydroxy-3,4-dihydro-2H-benzo[e][1,2]oxaborinine-8-carboxylic acid]",> 64,> 64,16 to 32,4 to 8,16 to 32,> 64,< 30
"NCCN1CCN(C(=O)NC(C(=O)N[C@H]2Cc3cccc(C(=O)O)c3OB2O)c2cc(Cl)c(O)cc2F)C(=O)C1=O (stereo partly drawn) [Example 87, (3R)-3-(2-(4-(2-aminoethyl)-2,3-dioxopiperazine-1-carboxamido)-2-(5-chloro-2-fluoro-4-hydroxyphenyl)acetamido)-2-hydroxy-3,4-dihydro-2H-benzo[e][1,2]oxaborinine-8-carboxylic acid]",> 64,> 64,16 to 32,0.25 to 0.5,4 to 8,16 to 32,< 30
"NCCN1CCN(C(=O)N[C@@H](C(=O)N[C@H]2Cc3cccc(C(=O)O)c3OB2O)c2cc(Cl)c(O)cc2Cl)C(=O)C1=O [Example 90, (R)-3-((R)-2-(4-(2-aminoethyl)-2,3-dioxopiperazine-1-carboxamido)-2-(2,5-dichloro-4-hydroxyphenyl)acetamido)-2-hydroxy-3,4-dihydro-2H-benzo[e][1,2]oxaborinine-8-carboxylic acid]",> 64,> 64,> 64,4 to 8,16 to 32,> 64,< 30
"NCCN1CCN(C(=O)NC(C(=O)N[C@H]2Cc3cccc(C(=O)O)c3OB2O)c2cc(F)c(O)cc2F)C(=O)C1=O (stereo partly drawn) [Example 93, (3R)-3-(2-(4-(2-aminoethyl)-2,3-dioxopiperazine-1-carboxamido)-2-(2,5-difluoro-4-hydroxyphenyl)acetamido)-2-hydroxy-3,4-dihydro-2H-benzo[e][1,2]oxaborinine-8-carboxylic acid]",> 64,> 64,> 64,1 to 2,4 to 8,> 64,< 30
"NCCN1CCN(C(=O)NC(C(=O)N[C@H]2Cc3cccc(C(=O)O)c3OB2O)c2c(F)cc(O)cc2Cl)C(=O)C1=O (stereo partly drawn) [Example 94, (3R)-3-(2-(4-(2-aminoethyl)-2,3-dioxopiperazine-1-carboxamido)-2-(2-chloro-6-fluoro-4-hydroxyphenyl)acetamido)-2-hydroxy-3,4-dihydro-2H-benzo[e][1,2]oxaborinine-8-carboxylic acid]",> 64,> 64,> 64,4 to 8,16 to 32,> 64,< 30
"CCN1CCN(C(=O)NC(C(=O)N[C@H]2Cc3cccc(C(=O)O)c3OB2O)c2c(F)cc(O)cc2Cl)C(=O)C1=O (stereo partly drawn) [Example 95, (3R)-3-(2-(2-chloro-6-fluoro-4-hydroxyphenyl)-2-(4-ethyl-2,3-dioxopiperazine-1-carboxamido)acetamido)-2-hydroxy-3,4-dihydro-2H-benzo[e][1,2]oxaborinine-8-carboxylic acid]",16 to 32,16 to 32,4 to 8,< 0.125,1 to 2,16 to 32,< 30
"CCN1CCN(C(=O)NC(C(=O)N[C@H]2Cc3cccc(C(=O)O)c3OB2O)c2cccc(NC(=O)c3cncnc3)c2)C(=O)C1=O (stereo partly drawn) [Example 96, (3R)-3-(2-(4-ethyl-2,3-dioxopiperazine-1-carboxamido)-2-(3-(pyrimidine-5-carboxamido)phenyl)acetamido)-2-hydroxy-3,4-dihydro-2H-benzo[e][1,2]oxaborinine-8-carboxylic acid]",> 64,> 64,> 64,4 to 8,16 to 32,> 64,30 to 500
